{"source": "patent US8435561B2", "about": "(Besins Healthcare Luxembourg Sarl, priority 2001, dated 2013)", "assay": "Comparative particle size study (Mastersizer 2000 laser particle sizer)", "format": "physicochemical", "conditions": "in sesame seed oil, olive oil, colza oil or almond oil, compared to that obtained in peanut oil", "data": [{"smiles": "CC(=O)[C@H]1CC[C@H]2[C@@H]3CCC4=CC(=O)CC[C@]4(C)[C@H]3CC[C@]12C", "note": "[Micronized Progesterone, progesterone]", "values": [{"measurement": "size distribution of progesterone", "value": "comparable"}]}]}
